ChEMBL document CHEMBL4507310, “Data for DCP probe A-1211212” (2021)

Legend:
[1] = molecular target: Endothelin receptor type B (Homo sapiens) (UniProt P24530); experiment: ETB (h) Eurofins-Cerep binding assay; parameters: ligand concentration 0.03 nM; settings: filed as agonist, Compound concentration 10.0 uM
[2] = molecular target: Motilin receptor (Homo sapiens) (UniProt O43193); experiment: motilin (h Eurofins-Cerep binding assay; parameters: ligand concentration 0.05 nM; settings: filed as agonist, Compound concentration 10.0 uM
[3] = molecular target: Kappa-type opioid receptor (Homo sapiens) (UniProt P41145); experiment: kappa (h) (KOP) Eurofins-Cerep binding assay; parameters: ligand concentration 0.5 nM; settings: filed as agonist, Compound concentration 10.0 uM
[4] = molecular target: P2X receptor (Rattus norvegicus) (UniProt P51579+P49653+P51578+Q64663+P47824+P51577+P49654); experiment: P2X Eurofins-Cerep binding assay; format: protein assay; parameters: ligand concentration 3 nM; settings: filed as agonist, Compound concentration 10.0 uM
[5] = molecular target: Estrogen receptor (Homo sapiens) (UniProt P03372); experiment: Estrogen ER alpha (h) Eurofins-Cerep binding assay; parameters: ligand concentration 0.5 nM; settings: filed as agonist, Compound concentration 10.0 uM
[6] = molecular target: L-type Ca2+ channel (diltiazem site, benzothiazepines) (Rattus norvegicus, UniProt P22002+P27732+Q02485); experiment: Ca2+ channel (L, diltiazem site) (benzothiazepines) Eurofins-Cerep binding assay; format: protein assay; parameters: incubation time 120 min, incubation temperature RT, ligand concentration 15 nM; settings: rat cerebral cortex, probe [3H]diltiazem (15 nM), compound concentration 10 uM, read-out: % Inhibition of Control Specific Binding (Mean n=2)
[7] = molecular target: Ankyrin repeat and protein kinase domain-containing protein 1 (Homo sapiens) (UniProt Q8NFD2); settings: Compound concentration 1000.0 nM
[8] = molecular target: Calcium/calmodulin-dependent protein kinase type IV (Homo sapiens) (UniProt Q16566); settings: Compound concentration 1000.0 nM
[9] = molecular target: Cyclin-dependent kinase 11A (Homo sapiens) (UniProt Q9UQ88); settings: Compound concentration 1000.0 nM
[10] = molecular target: Cyclin-dependent kinase 19 (Homo sapiens) (UniProt Q9BWU1); settings: Compound concentration 1000.0 nM
[11] = molecular target: Cyclin-dependent kinase 4 (Homo sapiens) (UniProt P11802); settings: Compound concentration 1000.0 nM
[12] = molecular target: Discoidin domain-containing receptor 2 (Homo sapiens) (UniProt Q16832); settings: Compound concentration 1000.0 nM
[13] = test system: Epidermal growth factor receptor (Homo sapiens), P00533 [G719S]; settings: Compound concentration 1000.0 nM
[14] = molecular target: Ephrin type-B receptor 2 (Homo sapiens) (UniProt P29323); settings: Compound concentration 1000.0 nM
[15] = molecular target: Homeodomain-interacting protein kinase 4 (Homo sapiens) (UniProt Q8NE63); settings: Compound concentration 1000.0 nM
[16] = molecular target: Insulin receptor-related protein (Homo sapiens) (UniProt P14616); settings: Compound concentration 1000.0 nM
[17] = molecular target: Mitogen-activated protein kinase kinase kinase kinase 4 (Homo sapiens) (UniProt O95819); settings: Compound concentration 1000.0 nM
[18] = molecular target: MAP/microtubule affinity-regulating kinase 4 (Homo sapiens) (UniProt Q96L34); settings: Compound concentration 1000.0 nM
[19] = molecular target: Dual specificity mitogen-activated protein kinase kinase 1 (Homo sapiens) (UniProt Q02750); settings: Compound concentration 1000.0 nM
[20] = molecular target: Serine/threonine-protein kinase 3 (Homo sapiens) (UniProt Q13188); settings: Compound concentration 1000.0 nM
[21] = molecular target: Serine/threonine-protein kinase Nek2 (Homo sapiens) (UniProt P51955); settings: Compound concentration 1000.0 nM
[22] = test system: Phosphatidylinositol 4,5-bisphosphate 3-kinase catalytic subunit alpha isoform (Homo sapiens), P42336 [E542K]; settings: Compound concentration 1000.0 nM
[23] = molecular target: 1-phosphatidylinositol 3-phosphate 5-kinase (Homo sapiens) (UniProt Q9Y2I7); settings: Compound concentration 1000.0 nM
[24] = molecular target: Protein kinase C delta type (Homo sapiens) (UniProt Q05655); settings: Compound concentration 1000.0 nM
[25] = molecular target: Protein kinase C epsilon type (Homo sapiens) (UniProt Q02156); settings: Compound concentration 1000.0 nM
[26] = molecular target: Protein kinase C iota type (Homo sapiens) (UniProt P41743); settings: Compound concentration 1000.0 nM
[27] = molecular target: Protein kinase C theta type (Homo sapiens) (UniProt Q04759); settings: Compound concentration 1000.0 nM
[28] = molecular target: Ribosomal protein S6 kinase alpha-1 (Homo sapiens) (UniProt Q15418); settings: Compound concentration 1000.0 nM
[29] = molecular target: Non-receptor tyrosine-protein kinase TNK1 (Homo sapiens) (UniProt Q13470); settings: Compound concentration 1000.0 nM
[30] = molecular target: NT-3 growth factor receptor (Homo sapiens) (UniProt Q16288); settings: Compound concentration 1000.0 nM
[31] = molecular target: T1, Alpha-2A adrenergic receptor (Homo sapiens) (UniProt P08913); settings: Compound concentration 10.0 uM
T1 sequence (whole entry): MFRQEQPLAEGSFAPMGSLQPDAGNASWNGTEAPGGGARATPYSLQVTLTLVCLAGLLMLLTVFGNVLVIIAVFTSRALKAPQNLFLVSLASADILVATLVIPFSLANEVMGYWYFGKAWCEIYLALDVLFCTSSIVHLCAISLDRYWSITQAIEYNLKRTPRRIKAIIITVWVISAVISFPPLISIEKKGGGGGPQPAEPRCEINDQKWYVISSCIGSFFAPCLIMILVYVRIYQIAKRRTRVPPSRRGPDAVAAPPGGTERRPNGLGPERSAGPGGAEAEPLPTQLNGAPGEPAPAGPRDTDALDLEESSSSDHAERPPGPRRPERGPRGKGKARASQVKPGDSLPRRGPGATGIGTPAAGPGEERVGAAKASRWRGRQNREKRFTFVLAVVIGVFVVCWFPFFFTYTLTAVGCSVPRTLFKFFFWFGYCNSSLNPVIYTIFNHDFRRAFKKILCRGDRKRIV

[32] = molecular target: T2, Muscarinic acetylcholine receptor M2 (Homo sapiens) (UniProt P08172); settings: Compound concentration 10.0 uM
T2 sequence (whole entry): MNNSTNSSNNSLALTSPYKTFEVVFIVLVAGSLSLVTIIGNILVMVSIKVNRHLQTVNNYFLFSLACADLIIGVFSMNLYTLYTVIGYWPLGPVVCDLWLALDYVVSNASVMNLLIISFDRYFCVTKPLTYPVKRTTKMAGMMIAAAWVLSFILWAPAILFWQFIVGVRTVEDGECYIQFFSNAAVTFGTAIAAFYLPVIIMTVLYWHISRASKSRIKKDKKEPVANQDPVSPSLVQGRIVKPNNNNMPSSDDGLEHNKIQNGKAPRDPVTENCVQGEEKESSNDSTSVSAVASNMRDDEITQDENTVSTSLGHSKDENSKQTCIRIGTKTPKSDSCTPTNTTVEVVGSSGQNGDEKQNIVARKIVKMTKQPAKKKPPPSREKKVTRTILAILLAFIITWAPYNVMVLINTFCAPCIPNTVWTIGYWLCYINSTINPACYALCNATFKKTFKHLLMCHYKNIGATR

Chain of Calcium/calmodulin-dependent protein kinase type IV (Homo sapiens) (Q16566 whole entry): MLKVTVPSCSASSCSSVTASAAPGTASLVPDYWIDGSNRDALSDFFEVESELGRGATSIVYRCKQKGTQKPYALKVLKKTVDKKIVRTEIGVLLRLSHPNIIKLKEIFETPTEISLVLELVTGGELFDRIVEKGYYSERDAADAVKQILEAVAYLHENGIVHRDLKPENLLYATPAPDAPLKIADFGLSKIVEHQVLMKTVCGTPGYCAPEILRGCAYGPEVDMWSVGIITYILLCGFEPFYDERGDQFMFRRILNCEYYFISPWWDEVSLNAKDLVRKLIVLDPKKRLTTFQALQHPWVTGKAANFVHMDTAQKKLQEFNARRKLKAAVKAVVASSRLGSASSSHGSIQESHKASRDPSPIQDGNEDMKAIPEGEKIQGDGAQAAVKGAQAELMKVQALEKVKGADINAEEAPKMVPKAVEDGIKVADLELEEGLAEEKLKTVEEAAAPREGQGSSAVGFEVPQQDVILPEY
Chain of Non-receptor tyrosine-protein kinase TNK1 (Homo sapiens) (Q13470 whole entry): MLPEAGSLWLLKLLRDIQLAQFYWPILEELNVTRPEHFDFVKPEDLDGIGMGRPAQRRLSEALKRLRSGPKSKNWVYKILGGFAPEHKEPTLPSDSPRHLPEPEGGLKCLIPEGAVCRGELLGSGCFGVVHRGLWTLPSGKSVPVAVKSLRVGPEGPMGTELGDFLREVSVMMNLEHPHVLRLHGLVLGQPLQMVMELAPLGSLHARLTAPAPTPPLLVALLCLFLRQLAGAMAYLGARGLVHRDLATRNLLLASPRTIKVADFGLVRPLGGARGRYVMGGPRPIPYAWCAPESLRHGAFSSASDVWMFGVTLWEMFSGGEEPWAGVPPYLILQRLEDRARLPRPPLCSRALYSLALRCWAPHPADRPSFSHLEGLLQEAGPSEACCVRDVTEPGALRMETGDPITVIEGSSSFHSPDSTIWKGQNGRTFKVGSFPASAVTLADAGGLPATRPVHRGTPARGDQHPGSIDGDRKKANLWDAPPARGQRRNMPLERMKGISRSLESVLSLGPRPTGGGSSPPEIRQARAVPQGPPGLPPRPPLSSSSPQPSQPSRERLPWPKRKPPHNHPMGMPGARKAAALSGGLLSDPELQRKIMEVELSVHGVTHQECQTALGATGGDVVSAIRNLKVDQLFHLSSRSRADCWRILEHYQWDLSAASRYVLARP
Chain of Mitogen-activated protein kinase kinase kinase kinase 4 (Homo sapiens) (O95819 2-1239 limits assumed): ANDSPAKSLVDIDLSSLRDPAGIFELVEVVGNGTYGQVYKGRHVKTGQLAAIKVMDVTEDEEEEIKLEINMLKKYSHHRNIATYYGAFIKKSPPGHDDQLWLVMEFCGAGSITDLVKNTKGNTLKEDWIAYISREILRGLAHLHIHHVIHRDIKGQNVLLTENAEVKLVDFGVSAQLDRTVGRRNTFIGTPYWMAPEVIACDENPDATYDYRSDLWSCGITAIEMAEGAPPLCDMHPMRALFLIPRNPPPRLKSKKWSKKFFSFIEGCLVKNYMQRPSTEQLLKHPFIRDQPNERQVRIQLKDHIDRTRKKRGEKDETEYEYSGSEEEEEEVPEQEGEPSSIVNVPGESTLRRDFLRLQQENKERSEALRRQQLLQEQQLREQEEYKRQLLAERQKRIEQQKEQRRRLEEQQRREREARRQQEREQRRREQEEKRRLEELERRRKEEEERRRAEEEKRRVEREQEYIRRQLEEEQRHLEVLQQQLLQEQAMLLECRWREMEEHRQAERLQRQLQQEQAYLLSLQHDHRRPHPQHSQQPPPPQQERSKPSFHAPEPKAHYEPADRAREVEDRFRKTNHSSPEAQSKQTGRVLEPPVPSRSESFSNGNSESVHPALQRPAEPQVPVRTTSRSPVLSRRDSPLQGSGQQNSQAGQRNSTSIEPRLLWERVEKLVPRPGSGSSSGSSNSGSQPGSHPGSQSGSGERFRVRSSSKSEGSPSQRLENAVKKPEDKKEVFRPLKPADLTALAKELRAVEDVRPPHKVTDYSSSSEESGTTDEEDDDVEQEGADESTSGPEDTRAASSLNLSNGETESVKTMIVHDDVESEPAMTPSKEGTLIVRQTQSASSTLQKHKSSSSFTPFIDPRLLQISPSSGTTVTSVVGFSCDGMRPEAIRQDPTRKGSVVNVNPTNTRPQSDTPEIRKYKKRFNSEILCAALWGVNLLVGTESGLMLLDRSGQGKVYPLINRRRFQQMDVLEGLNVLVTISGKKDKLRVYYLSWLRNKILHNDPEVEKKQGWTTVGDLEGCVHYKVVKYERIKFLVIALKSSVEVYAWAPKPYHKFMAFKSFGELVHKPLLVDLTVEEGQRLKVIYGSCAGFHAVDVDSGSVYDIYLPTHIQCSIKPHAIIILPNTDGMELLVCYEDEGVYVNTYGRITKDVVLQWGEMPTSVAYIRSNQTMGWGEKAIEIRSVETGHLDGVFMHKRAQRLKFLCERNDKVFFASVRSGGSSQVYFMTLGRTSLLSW
Chain of Kappa-type opioid receptor (Homo sapiens) (P41145 whole entry): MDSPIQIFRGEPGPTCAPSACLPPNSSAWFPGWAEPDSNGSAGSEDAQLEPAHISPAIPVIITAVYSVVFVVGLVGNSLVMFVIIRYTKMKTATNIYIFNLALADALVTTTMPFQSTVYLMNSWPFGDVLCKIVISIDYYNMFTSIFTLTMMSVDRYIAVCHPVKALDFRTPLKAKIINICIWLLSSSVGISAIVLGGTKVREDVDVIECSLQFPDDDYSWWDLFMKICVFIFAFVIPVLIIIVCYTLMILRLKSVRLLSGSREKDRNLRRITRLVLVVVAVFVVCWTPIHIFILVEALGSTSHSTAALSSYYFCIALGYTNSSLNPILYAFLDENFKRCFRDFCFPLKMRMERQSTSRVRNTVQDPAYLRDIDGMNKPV
Chain of NT-3 growth factor receptor (Homo sapiens) (Q16288 32-839 limits assumed): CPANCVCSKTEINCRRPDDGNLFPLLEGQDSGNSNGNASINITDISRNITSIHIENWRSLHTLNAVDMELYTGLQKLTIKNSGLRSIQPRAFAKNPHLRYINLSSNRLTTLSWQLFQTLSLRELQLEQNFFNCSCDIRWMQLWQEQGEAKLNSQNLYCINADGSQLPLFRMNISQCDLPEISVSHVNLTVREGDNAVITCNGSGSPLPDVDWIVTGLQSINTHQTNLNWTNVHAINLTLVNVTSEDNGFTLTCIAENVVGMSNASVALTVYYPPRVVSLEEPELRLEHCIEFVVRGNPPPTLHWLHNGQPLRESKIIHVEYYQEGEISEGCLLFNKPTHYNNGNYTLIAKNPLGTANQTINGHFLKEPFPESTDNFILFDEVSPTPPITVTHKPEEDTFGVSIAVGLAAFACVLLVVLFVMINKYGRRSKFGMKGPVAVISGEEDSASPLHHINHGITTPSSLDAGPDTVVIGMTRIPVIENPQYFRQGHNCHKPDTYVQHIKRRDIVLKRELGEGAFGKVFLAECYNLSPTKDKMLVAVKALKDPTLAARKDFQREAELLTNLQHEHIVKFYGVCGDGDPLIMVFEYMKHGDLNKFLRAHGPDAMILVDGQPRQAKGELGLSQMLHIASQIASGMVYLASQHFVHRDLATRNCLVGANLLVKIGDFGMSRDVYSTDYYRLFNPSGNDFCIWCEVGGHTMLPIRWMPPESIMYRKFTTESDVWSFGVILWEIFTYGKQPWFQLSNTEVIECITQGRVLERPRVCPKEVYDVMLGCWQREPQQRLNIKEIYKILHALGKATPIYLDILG
Chain of Protein kinase C delta type (Homo sapiens) (Q05655 whole entry, looked up): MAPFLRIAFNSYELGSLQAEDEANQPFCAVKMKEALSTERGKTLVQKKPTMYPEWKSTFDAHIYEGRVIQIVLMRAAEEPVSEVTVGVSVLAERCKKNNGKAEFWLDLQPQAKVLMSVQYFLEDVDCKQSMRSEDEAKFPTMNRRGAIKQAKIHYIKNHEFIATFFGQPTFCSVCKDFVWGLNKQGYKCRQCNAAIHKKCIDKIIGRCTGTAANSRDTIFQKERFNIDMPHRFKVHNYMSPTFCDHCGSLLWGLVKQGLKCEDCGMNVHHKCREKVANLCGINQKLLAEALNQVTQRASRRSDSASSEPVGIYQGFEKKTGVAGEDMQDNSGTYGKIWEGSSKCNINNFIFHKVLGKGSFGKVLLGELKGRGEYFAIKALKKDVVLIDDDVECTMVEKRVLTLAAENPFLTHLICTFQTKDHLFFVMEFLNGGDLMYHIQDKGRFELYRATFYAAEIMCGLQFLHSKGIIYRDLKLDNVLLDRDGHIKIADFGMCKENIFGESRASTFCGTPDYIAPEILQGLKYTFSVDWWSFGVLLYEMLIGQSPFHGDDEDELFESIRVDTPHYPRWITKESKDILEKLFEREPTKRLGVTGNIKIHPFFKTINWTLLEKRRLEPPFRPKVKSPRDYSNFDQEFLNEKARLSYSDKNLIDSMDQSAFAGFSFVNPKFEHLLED
Chain of Ankyrin repeat and protein kinase domain-containing protein 1 (Homo sapiens) (Q8NFD2 whole entry, the tested form may be a part): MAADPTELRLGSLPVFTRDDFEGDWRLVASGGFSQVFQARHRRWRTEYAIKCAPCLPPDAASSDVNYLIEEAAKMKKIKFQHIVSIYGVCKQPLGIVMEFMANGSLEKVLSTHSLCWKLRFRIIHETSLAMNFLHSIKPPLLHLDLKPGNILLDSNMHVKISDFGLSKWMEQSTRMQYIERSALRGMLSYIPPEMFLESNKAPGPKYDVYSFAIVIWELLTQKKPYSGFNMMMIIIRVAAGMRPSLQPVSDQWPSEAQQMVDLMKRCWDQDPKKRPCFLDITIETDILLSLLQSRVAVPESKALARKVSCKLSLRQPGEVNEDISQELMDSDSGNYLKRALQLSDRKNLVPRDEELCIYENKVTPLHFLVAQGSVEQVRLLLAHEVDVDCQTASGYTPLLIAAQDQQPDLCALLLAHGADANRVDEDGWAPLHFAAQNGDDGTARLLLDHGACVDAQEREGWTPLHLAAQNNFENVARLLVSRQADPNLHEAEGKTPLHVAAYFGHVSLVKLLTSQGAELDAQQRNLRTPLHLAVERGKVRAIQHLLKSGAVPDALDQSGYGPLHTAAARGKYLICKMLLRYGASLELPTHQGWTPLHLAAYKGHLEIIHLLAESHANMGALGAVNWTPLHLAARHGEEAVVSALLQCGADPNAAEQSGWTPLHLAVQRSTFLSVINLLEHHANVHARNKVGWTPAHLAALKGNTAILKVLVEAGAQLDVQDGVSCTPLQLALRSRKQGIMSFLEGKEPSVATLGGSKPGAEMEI

Q: O=C(NS(=O)(=O)c1ccc(NCC2CCOCC2)c([N+](=O)[O-])c1)c1ccc(N2CCN(Cc3ccc(C(F)(F)F)cc3-c3ccc(Cl)cc3)CC2)cc1Oc1cnc2[nH]ccc2c1 [A-1210227] was tested. Which % Inhibition of Control Specific Binding (Mean n=2) [1] did it give?
A: -11.8%

Q: What about the % Inhibition of Control Specific Binding (Mean n=2) [2] of the same molecule?
A: -13%

Q: What about the % Inhibition of Control Specific Binding (Mean n=2) [3] of the same molecule?
A: 23.2%

Q: And the % Inhibition of Control Specific Binding (Mean n=2) [4]?
A: 10%

Q: What about the % Inhibition of Control Specific Binding (Mean n=2) [5] of the same molecule?
A: -7.6%

Q: And the inhibition at 120 min, 10 µM [6]?
A: -124%

Q: And the residual activity [7]?
A: 77%

Q: What about the residual activity [8] of the same molecule?
A: 100%

Q: What about the residual activity [9] of the same molecule?
A: 100%

Q: What about the residual activity [10] of the same molecule?
A: 90%

Q: What about the residual activity [11] of the same molecule?
A: 100%

Q: And the residual activity [12]?
A: 90%

Q: What about the residual activity [13] of the same molecule?
A: 76%

Q: What about the residual activity [14] of the same molecule?
A: 100%

Q: And the residual activity [15]?
A: 98%

Q: And the residual activity [16]?
A: 98%

Q: What about the residual activity [17] of the same molecule?
A: 95%

Q: What about the residual activity [18] of the same molecule?
A: 85%

Q: And the residual activity [19]?
A: 92%

Q: And the residual activity [20]?
A: 100%

Q: And the residual activity [21]?
A: 100%

Q: What about the residual activity [22] of the same molecule?
A: 98%

Q: And the residual activity [23]?
A: 100%

Q: And the residual activity [24]?
A: 100%

Q: What about the residual activity [25] of the same molecule?
A: 100%

Q: And the residual activity [26]?
A: 100%

Q: And the residual activity [27]?
A: 100%

Q: What about the residual activity [28] of the same molecule?
A: 100%

Q: And the residual activity [29]?
A: 96%

Q: And the residual activity [30]?
A: 100%

Q: What about the inhibition [31] of the same molecule?
A: 9.67%

Q: And the inhibition [32]?
A: 1.6%

Q: For CO[C@H]1CC[C@H](CNc2ccc(S(=O)(=O)NC(=O)c3ccc(N4CCN(CC5=C(c6ccc(Cl)cc6)CC(C)(C)CC5)CC4)cc3Oc3cnc4[nH]ccc4c3)cc2[N+](=O)[O-])CC1 [A-1211212], which % Inhibition of Control Specific Binding (Mean n=2) [1] is on record?
A: -6.7%

Q: And the % Inhibition of Control Specific Binding (Mean n=2) [2]?
A: -20.5%

Q: And the % Inhibition of Control Specific Binding (Mean n=2) [3]?
A: 1.1%

Q: What about the % Inhibition of Control Specific Binding (Mean n=2) [4] of the same molecule?
A: -2.7%

Q: What about the % Inhibition of Control Specific Binding [5] of the same molecule?
A: 1.9%

Q: And the inhibition at 120 min, 10 µM [6]?
A: -6.2%

Q: And the residual activity [7]?
A: 81%

Q: And the residual activity [8]?
A: 100%

Q: And the residual activity [9]?
A: 95%

Q: And the residual activity [10]?
A: 73%

Q: And the residual activity [11]?
A: 100%

Q: And the residual activity [12]?
A: 100%

Q: And the residual activity [13]?
A: 65%

Q: What about the residual activity [14] of the same molecule?
A: 75%

Q: What about the residual activity [15] of the same molecule?
A: 4.4%

Q: What about the residual activity [16] of the same molecule?
A: 100%

Q: And the residual activity [17]?
A: 100%

Q: And the residual activity [18]?
A: 83%

Q: And the residual activity [19]?
A: 99%

Q: And the residual activity [20]?
A: 85%

Q: And the residual activity [21]?
A: 100%

Q: What about the residual activity [22] of the same molecule?
A: 94%

Q: And the residual activity [23]?
A: 89%

Q: What about the residual activity [24] of the same molecule?
A: 70%

Q: And the residual activity [25]?
A: 79%

Q: What about the residual activity [26] of the same molecule?
A: 79%

Q: What about the residual activity [27] of the same molecule?
A: 89%

Q: What about the residual activity [28] of the same molecule?
A: 73%

Q: What about the residual activity [29] of the same molecule?
A: 81%

Q: And the residual activity [30]?
A: 100%

Q: And the inhibition [31]?
A: 12.5%

Q: And the inhibition [32]?
A: -2.68%
